These are literature values, as cited in patent publication US20050064023A1, “Compound” (priority 2001, published 2005).

For this data set the following is noted: in combination with DOPE.

For the compound “1,2-dioleyl-sn-glycero-3-succinyl-2-hydroxyethyl-disulfide omithine [DOGSDSO]”, the “enhancement compared to the non-disulfide analogs” value is “up to 50 times”.

Take `CC(C)CCC[C@@H](C)[C@H]1CC[C@H]2[C@@H]3CC=C4C[C@@H](OC(=O)CSSCC(=O)NCCN(CCN)CCN)CC[C@]4(C)[C@H]3CC[C@]12C` [CHDTAEA, cholesteryl-hemi-dithio-diglycolyl-tris(aminoethyl)-amine]: the “cellular toxicity compared to DC-Chol liposomes” value is “decrease of cellular toxicity” and the “transfection efficiency compared to DC-Chol liposomes” value is recorded as “increase of transfection efficiency”.
